In patent publication US10450297B2, “Sulfonyl amide derivatives for the treatment of abnormal cell growth” (Pfizer, Inc., priority 2007, dated 2019):

Target: FAK kinase (catalytic construct FAK(410-689)) (Homo sapiens (Human), UniProt Q05397)
Assay: FAKcd kinase ELISA (inhibition of poly-glu-tyr phosphorylation by FAK(410-689))
Format: biochemical
Conditions: 50 μM final ATP

Sequence of FAK kinase (catalytic construct FAK(410-689)) (Q05397 410-689): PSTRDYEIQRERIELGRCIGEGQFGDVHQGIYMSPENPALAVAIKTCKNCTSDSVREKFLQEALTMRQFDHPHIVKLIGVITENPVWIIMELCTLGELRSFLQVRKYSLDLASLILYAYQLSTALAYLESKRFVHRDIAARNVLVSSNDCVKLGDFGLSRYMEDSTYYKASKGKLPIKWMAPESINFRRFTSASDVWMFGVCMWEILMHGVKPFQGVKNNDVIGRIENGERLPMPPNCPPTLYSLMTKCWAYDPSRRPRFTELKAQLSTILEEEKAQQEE

SMILES	IC50 [nM]
CN1CCC(NC(=O)c2ccc(Nc3ncc(C(F)(F)F)c(NCc4cccnc4N(C)S(C)(=O)=O)n3)cc2)CC1 [Compound 250, 4-({4-[({2-[methyl(methylsulfonyl)amino]pyridin-3-yl}methyl)amino]-5-(trifluoromethyl)pyrimidin-2-yl}amino)-N-(1-methylpiperidin-4-yl)benzamide]	0.69
CN(c1cccc(CNc2nc(Nc3ccc(S(N)(=O)=O)cc3)ncc2Br)c1)S(C)(=O)=O [Compound 34, 4-{[5-bromo-4-({3-[methyl(methylsulfonyl)amino]benzyl}amino)pyrimidin-2-yl)amino}benzenesulfonamide]	15.6
CN(c1ncccc1CNc1nc(Nc2ccc(C(=O)NCc3ccccn3)cc2)ncc1C(F)(F)F)S(C)(=O)=O [Compound 248, 4-({4-[({2-[methyl(methylsulfonyl)amino]pyridin-3-yl}methyl)amino]-5-(trifluoromethyl)pyrimidin-2-yl}amino)-N-(pyridin-2-ylmethyl)benzamide]	9.35
CN(c1ncccc1CNc1nc(Nc2ccc(C(=O)N3CCNC(=O)C3)cc2)ncc1C(F)(F)F)S(C)(=O)=O [Compound 254, N-methyl-N-[3-({[2-({4-[(3-oxopiperazin-1-yl)carbonyl]phenyl}amino)-5-(trifluoromethyl)pyrimidin-4-yl]amino}methyl)pyridin-2-yl]methanesulfonamide]	1.33
CN(c1ncccc1CNc1nc(Nc2cccc(C(N)=NO)c2)ncc1C(F)(F)F)S(C)(=O)=O [Compound 408, N′-hydroxy-3-({4-[({2-[methyl(methylsulfonyl)amino]pyridin-3-yl}methyl)amino]-5-(trifluoromethyl)pyrimidin-2-yl}amino)benzenecarboximidamide]	2.29
CN(c1ncccc1CNc1nc(Nc2cccc(C(=O)NC3CCNCC3)c2)ncc1C(F)(F)F)S(C)(=O)=O [Compound 361, 3-({4-[({2-[methyl(methylsulfonyl)amino]pyridin-3-yl}methyl)amino]-5-(trifluoromethyl)pyrimidin-2-yl}amino)-N-piperidin-4-ylbenzamide]	8.7
CC1CCN(C(=O)c2ccc(Nc3ncc(C(F)(F)F)c(NCc4cccnc4N(C)S(C)(=O)=O)n3)cc2)CC1 [Compound 265, N-methyl-N-[3-({[2-({4-[(4-methylpiperidin-1-yl)carbonyl]phenyl}amino)-5-(trifluoromethyl)pyrimidin-4-yl]amino}methyl)pyridin-2-yl]methanesulfonamide]	0.6
Cc1ncc(CNc2nc(Nc3ccc(C(N)=O)cc3)ncc2C(F)(F)F)c(N(C)S(C)(=O)=O)n1 [Compound 84, 4-({4-[({2-methyl-4-[methyl(methylsulfonyl)amino]pyrimidin-5-yl}methyl)amino]-5-(trifluoromethyl)pyrimidin-2-yl}amino)benzamide]	1.71
CNC(=O)c1ccc(Nc2ncc(C(F)(F)F)c(NCc3nccnc3N(C)S(C)(=O)=O)n2)c(F)c1 [Compound 368, 3-fluoro-N-methyl-4-({4-[({3-[methyl(methylsulfonyl)amino]pyrazin-2-yl}methyl)amino]-5-(trifluoromethyl)pyrimidin-2-yl}amino)benzamide]	< 0.595
COc1ccc(C(N)=O)cc1Nc1ncc(C(F)(F)F)c(NCc2ncccc2N(C)S(C)(=O)=O)n1 [Compound 306, 4-methoxy-3-({4-[({3-[methyl(methylsulfonyl)amino]pyridin-2-yl}methyl)amino]-5-(trifluoromethyl)pyrimidin-2-yl}amino)benzamide]	0.696
CN(c1ncccc1CNc1nc(Nc2nccc(N)n2)ncc1C(F)(F)F)S(C)(=O)=O [Compound 298, N-{3-[({2-[(4-aminopyrimidin-2-yl)amino]-5-(trifluoromethyl)pyrimidin-4-yl}amino)methyl]pyridin-2-yl}-N-methylmethane-sulfonamide]	32.8
CN(c1ncccc1CNc1nc(Nc2ccc(CC(=O)NC3CC3)cc2)ncc1C(F)(F)F)S(C)(=O)=O [Compound 217, N-cyclopropyl-2-[4-({4-[({2~ [methyl(methylsulfonyl)amino]pyridin-3-yl}methyl)amino]-5-(trifluoromethyl)pyrimidin-2-yl}amino)phenyl]acetamide]	0.6
COc1cc(C(N)=O)ccc1Nc1ncc(C(F)(F)F)c(NCc2cccnc2N(C)S(C)(=O)=O)n1 [Compound 48, 3-methoxy-4-({4-[({2-[methyl(methylsuffonyl)amino]pyridin-3-yl}methyl)amino]-5-(trifluoromethyl)pyrimidin-2-yl}amino)benzamide]	0.59

The next lines start with the values.

IC50 [nM]	SMILES
0.6	Cc1ccc(CNc2nc(Nc3ccc(C(=O)N(C)C)cc3)ncc2C(F)(F)F)c(N(C)S(C)(=O)=O)n1 [Compound 231, N,N-dimethyl-4-({4-[({6-methyl-2-[methyl(methylsulfonyl)amino]pyridin-3-yl}methyl)amino]-5-(trifluoromethyl)pyrimidin-2-yl}amino)benzamide]
1.77	CN(c1cccnc1CNc1nc(Nc2ccc(C(N)=O)c(F)c2)ncc1C(F)(F)F)S(C)(=O)=O [Compound 331, 2-fluoro-4-({4-[({3-[methyl(methylsulfonyl)amino]pyridin-2-yl}methyl)amino]-5-(trifluoromethyl)pyrimidin-2-yl}amino)benzamide]
2.4	C[C@H]1COCCN1C(=O)c1cccc(Nc2ncc(C(F)(F)F)c(NCc3cccnc3N(C)S(C)(=O)=O)n2)c1 [Compound 143, N-methyl-N-{3-[({2-[(3-{[(3S)-3-methylmorpholin-4-yl]carbonyl}phenyl)amino]-5-(trifluoromethyl)pyrimidin-4-yl}amino)methyl]pyridin-2-yl}methanesulfonamide]
< 0.595	CN(c1ncccc1CNc1nc(Nc2ccc(C(N)=O)c(Cl)c2)ncc1C(F)(F)F)S(C)(=O)=O [Compound 358, 2-chloro-4-({4-[({2-[methyl(methylsulfonyl)amino]pyridin-3-yl}methyl)amino]-5-(trifluoromethyl)pyrimidin-2-yl}amino)benzamide]
4.78	CN(c1cccc(CNc2nc(Nc3ccc(F)c(C(N)=O)c3)ncc2C(F)(F)F)c1)S(C)(=O)=O [Compound 379, 2-fluoro-5-{[4-({3-[methyl(methylsulfonyl)amino]benzyl}amino)-5-(trifluoromethyl)pyrimidin-2-yl]amino}benzamide]
0.6	CCNC(=O)c1ccc(Nc2ncc(C(F)(F)F)c(NCc3cccc(S(C)(=O)=O)c3)n2)cc1 [Compound 77, N-ethyl-4-{[4-{[3-(methylsulfonyl)benzyl]amino}-5-(trifluoromethyl)pyrimidin-2-yl]amino}benzamide]
0.59	CCNC(=O)c1ccc(Nc2ncc(C(F)(F)F)c(NCc3ncccc3N(C)S(C)(=O)=O)n2)cc1 [Compound 97, N-ethyl-4-({4-[({3-[methyl(methylsulfonyl)amino]pyridin-2-yl}methyl)amino]-5-(trifluoromethyl)pyrimidin-2-yl}amino)benzamide]
2.36	CN(c1ncccc1CNc1nc(Nc2ccc(C(=O)N3CCC[C@@H](O)C3)cc2)ncc1C(F)(F)F)S(C)(=O)=O [Compound 275, N-{3-[({2-[(4-{[(3R)-3-hydroxypiperidin-1-yl]carbonyl}phenyl)amino]-5-(trifluoromethyl)pyrimidin-4-yl}amino)methyl]pyridin-2-yl}-N-methylmethane-sulfonamide]
1.1	CCCN(CCO)C(=O)c1cccc(Nc2ncc(C(F)(F)F)c(NCc3cccnc3N(C)S(C)(=O)=O)n2)c1 [Compound 193, N-(2-hydroxyethyl)-3-({4-[({2-[methyl(methylsulfonyl)amino]pyridin-3-yl}methyl)amino]-5-(trifluoromethyl)pyrimidin-2-yl}amino)-N-propylbenzamide]
1.61	CNC(=O)c1cccc(Nc2ncc(C(F)(F)F)c(NCc3cccnc3N(C)S(C)(=O)=O)n2)c1 [Compound 86, N-methyl-3-({4-[({2-[methyl(methylsulfonyl)amino]pyridin-3-yl}methyl)amino]-5-(trifluoromethyl)pyrimidin-2-yl}amino)benzamide]
4	CN(c1ncccc1CNc1nc(Nc2ccc(C(N)=O)nc2)ncc1C(F)(F)F)S(C)(=O)=O [Compound 372, 5-({4-[({2-[methyl(methylsulfonyl)amino]pyridin-3-yl}methyl)amino]-5-(trifluoromethyl)pyrimidin-2-yl}amino)pyridine-2-carboxamide]
15.3	CN(c1cccnc1CNc1nc(Nc2ccc(C(N)=O)nc2)ncc1C(F)(F)F)S(C)(=O)=O [Compound 377, 5-({4-[({3-[methyl(methylsulfonyl)amino]pyridin-2-yl}methyl)amino]-5-(trifluoromethyl)pyrimidin-2-yl}amino)pyridine-2-carboxamide]
< 0.595	Cc1cc(Nc2ncc(C(F)(F)F)c(NCc3cccnc3N(C)S(C)(=O)=O)n2)ccc1C(N)=O [Compound 334, 2-methyl-4-({4-[({2-[methyl(methylsulfonyl)amino]pyridin-3-yl}methyl)amino]-5-(trifluoromethyl)pyrimidin-2-yl)amino)benzamide]
0.6	Cc1cccc(NS(C)(=O)=O)c1CNc1nc(Nc2ccc(C(N)=O)cc2)ncc1C(F)(F)F [Compound 113, 4-{[4-({2-methyl-6-[(methylsulfonyl)amino]benzyl}amino)-5-(trifluoromethyl)pyrimidin-2-yl]amino}benzamide]
1.64	CN(c1ncccc1CNc1nc(Nc2cccc(C(=O)NC(C)(C)CO)c2)ncc1C(F)(F)F)S(C)(=O)=O [Compound 201, N-(2-hydroxy-1,1-dimethylethyl)-3-({4-[({2-[methyl(methylsulfonyl)amino]pyridin-3-yl}methyl)amino]-5-(trifluoromethyl)pyrimidin-2-yl}amino)benzamide]
0.59	CN(c1ncccc1CNc1nc(Nc2ccc(CN)cc2)ncc1C(F)(F)F)S(C)(=O)=O [Example 4, N-(3-((2-(4-(aminomethyl)phenylamino)-5-(trifluoromethyl)pyrimidin-4-ylamino)methyl)pyridin-2-yl)-N-methylmethanesulfonamide]
